What was measured:
[1] = test system: fast food diet (FFD) male C57B1/6 mouse; test: 14-day pharmacology study of Compound 2 and fenofibrate in chow, fast food diet model of fatty liver; format: in vivo; details: Compound 2 10 mg/kg QD PO, two weeks of dosing
Protocol: Once Daily Compound 2 and Fenofibrate Administered in Chow: 14-Day Pharmacology Study Using the Fast Food Diet Model of Fatty Liver in the Male C57B1/6 Mouse
Purpose: The purpose of this study was to assess the effect of Compound 2 on plasma and liver TG and molecular biology of liver after 10 to 14 days of Compound 2 administered orally (10 mg/kg QD), or fenofibrate (0.1% administration in chow), or the combination in a mice fed a diet high in fat, cholesterol, and fructose (the fast-food diet, FFD). Mice enrolled in this study were fed a fast food diet for approximately 9 months prior to study start. Primary endpoints were plasma triglycerides, liver triglycerides, liver cholesterol, and hepatic gene expression of liver X receptorα (LXRα), and sterol response element binding protein-1c (SREBP1c) target genes by qPCR.

[2] = test system: fast food diet (FFD) male C57BL/6 mouse; test: 15-day once daily oral Compound 2 and fenofibrate, fast food diet model of fatty liver; format: in vivo; details: 15 days
Protocol: Once Daily Oral Administration of Compound 2 and Fenofibrate: 15-Day Pharmacology Study Using the Fast Food Diet Model of Fatty Liver in the Male C57BL/6 Mouse
(§1) Purpose: The purpose of this study was to assess the effect of Compound 2 on plasma and liver triglycerides (TG) and molecular biology of liver after 15 days of oral administration (“PO”) of Compound 2 (5 mg/kg QD), fenofibrate (25 mg/kg and 50 mg/kg QD), or the combination (Compound 2 (5 mg/kg, QD)+fenofibrate (50 mg/kg, QD)) in mice fed a diet high in fat, cholesterol, and fructose (the fast-food diet, FFD (Research Diet D12079B)). Mice enrolled in this study were fed a FFD for approximately 9 months prior to study start. Primary endpoints were plasma TG, liver TG, liver ketone bodies, plasma liver enzymes, hepatic oxidative stress and hepatic gene expression of liver X receptorα (LXRα) and PPARα targets, and profibrotic markers by qPCR.

[3] = test system: subjects with steatosis and F1-F3 fibrosis / NASH; details: one subject on Compound 1 20 mg given 145 mg fenofibrate after grade 3 hypertriglyceridemia at week 1
Protocol: Ten subjects with steatosis (MRI-PDFF≥10%) and F1-F3 fibrosis (MRE≥2.88 kPa but non-cirrhotic based on FibroText <0.75, historical imaging and liver biopsy) were treated 20 mg Compound 1 for 12 weeks.
Four of the ten subjects were on fish oil or fenofibrate at baseline and continued the concomitant medication for the duration of the study. Throughout the study subjects were monitored for safety (adverse events, laboratory abnormalities), liver biochemistry, serum markers of fibrosis (ELF and its components TIMP-1, hyaluronic acid, PIII-NP) and cell death (CK18 M30 and M65), liver stiffness (MRE) and fat (MRI-PDFF) and the effect on de novo lipogensis was assessed using heavy water labeling.
The four subjects were analyzed in conjunction with eight subjects from the study described in Example 1. These twelve subjects were on fish oil or fibrates for at least six weeks of the study and included those who were on fish oil or fibrates at baseline or who had graded hypertriglyceridemia and were given fish oil or fibrates during the study.

[4] = test system: pro-fibrotic genes colla1 and timp1; test: Hepatic mRNA expression by qPCR, 15-day FFD mouse study; format: in vivo; details: Compound 2 5 mg/kg; fenofibrate 50 mg/kg; QD PO, 15 days
Protocol: as §1

Plasma triglycerides, increase relative to vehicle-treated animals [1] [%] | Plasma TG, increase relative to vehicle-treated animals ([2]; Compound 2 5 mg/kg QD PO, 2 h post dose, ad lib fed) [%] | Structure (SMILES) | All monitored TG related measurements (total TG, APOB48, VLDL-P, APOC3) [3] | Effect on the above-mentioned parameters (plasma TG, PPARα and LXRα target genes, ALT/AST, liver TG, βOHB, malondialdehyde) ([2]; fenofibrate alone, both 25 and 50 mg/kg QD PO) | Hepatic expression of pro-fibrotic genes [4]
15 | 29 | COc1ccccc1[C@H](Cn1c(=O)n(C(C)(C)C(=O)O)c(=O)c2c(C)c(-c3ncco3)sc21)O[C@H]1CC[C@@H](O)CC1 [Compound 2, 2-[1-[(2R)-2-[(4-hydroxycyclohexyl)oxy]-2-(2-methoxyphenyl)ethyl]-5-methyl-6-(1,3-oxazol-2-yl)-2,4-dioxo-1H,2H,3H,4H-thieno[2,3-d]pyrimidin-3-yl]-2-methylpropanoic acid] |  |  | 
 |  | CC(C)OC(=O)C(C)(C)Oc1ccc(C(=O)c2ccc(Cl)cc2)cc1 [fenofibrate, Fenofibrate, reference compound] | improved to less than baseline | modest-to-no effect | reduced

From patent publication US11963961B2, “Combination therapy comprising an ACC inhibitor” (Gilead Sciences, Inc., priority 2017, dated 2024)
